Data taken from patent EP0029697A1, “Pharmaceutical compositions for the treatment of neoplastic diseases and process therefor” (Gosalvez, Mario Gosalvez, priority 1979, dated 1981).

Legend:
bladder tumor receptor = assay: Preliminary study of biochemical affinity with tumor membrane receptors (bladder); assay type: binding
Excerpt: (§1) The preceding description is but illustrative of the practice of the invention and it is to be understood that other expedients may be employed by those skilled in the art without departure from the scope of the invention. Data on human tumors have been provided for bladder cancer because in a preliminary study of the biochemical affinity of 2-amino-2-thiazoline with tumor membrane receptors, the affinity with the bladder tumor receptor was very high. […] Therefore, it is claimed that 2-amino-2-thiazoline is an antitumor agent for mammalian cancer acting without toxicity by inducing reverse transformation.

[1] = tested on: other tumor receptors of different tissue origin; assay: Preliminary study of biochemical affinity with tumor membrane receptors (other tissues); assay type: binding
Excerpt: as §1

Hela cells = assay: Restoration of contact inhibition in colonies of Hela cells; assay type: cell-based, human
Method: Hela cells, a type of cell derived from human uterine tumor, were seeded in Eagle culture flasks at the concentration of 50 cells/cm^2. The cells were allowed to develop colonies during a period of 10 days with two changes of the medium on the second and sixth day. A tissue culture (minimum essential medium of Eagle with 10% calf serum) comprising amino acids, vitamins and glucose was employed.
2-Amino-2-thiazoline, obtained by treatment of the hydrochloride with a molar equivalent of sodium hydroxide, was added to the medium at varying concentrations on both the second day and the sixth day, after the initiation of the culture. A total of 3 flasks containing the cultured colonies were used for each concentration of 2-amino-2-thiazoline employed. On the tenth day, the cells were fixed in neutral formol and were stained with hematoxyline. A total of 500 colonies of the same size in each flask were counted at random and the percentage of colonies with contact inhibition (planar morphology) or without contact inhibition (pyrimidal or acuminated morphology) were noted.

[2] = tested on: tumors of various origins; assay: Preliminary clinical trial in tumors of various origins; assay type: in vivo
Excerpt: as §1

Lewis Lung carcinoma = assay: Effect on mouse tumors: survival time, Lewis Lung carcinoma; assay type: in vivo; settings: mice inoculated with Lewis Lung carcinoma
Method: (§2) The effect of 2-amino-2-thiazoline on mouse tumors (le'ukemia 1210 and Lewis Lung carcinoma) was also tested. […] However, it is knwon that the cells associated with those tumors are extremely undifferentiated from normal cells so as to have lost all or nearly all of the cytoskeletal system of contractile microfilaments. Such cells would be expected to be insensitive to agents which induce reverse transformation. Leukemia 1210 and Lewis Lung carcinoma are transplantable tumors and, upon transplantation, they have lost the tissue specific membrane receptors which are the target of 2-amino-2-thiazoline.

Toxicity to humans = assay type: in vivo; settings: doses up to at least 100 mg/kg
Method: 2-amino-2-thiazoline and 2-amino-2-thiazoline hydrochloride are also non-toxic to humans in doses up to at least 100 mg/kg. Therefore, the dosage administered can vary over a wide range, without concern that undesirable side-effects will result from large dosages.

Leukemia 1210 = assay: Effect on mouse tumors: survival time, leukemia 1210; assay type: in vivo; settings: mice inoculated with leukemia 1210
Method: as §2

[3] = tested on: advanced metastastic bladder cancer; assay: Clinical trial in patients with advanced metastatic bladder cancer; assay type: in vivo, humans
Method: Clinical trials with 2-amino-2-thiazoline hydrochloride have been conducted on 9 patients suffering from advanced metastastic bladder cancer, not amenable to any other treatment.
Only patients with measurable and progressing bladder tumors and lung metastases the growth rate of which was measured weekly in X-ray plates for serveral weeks before beginning the treatment were admitted to the trial. The development of the bladder tumors was measured by cytos- copy after biopsy.
Each of the patients were intravenously administered 2-amino-2-thiazoline-hydrochloride, as an aqueous solution (25-75 mg/ml) at the dose of 1.5 mg/kg of body weight on a daily basis per 5 days, every three weeks (the first 5 patients), and at dose of 3 mg/kg daily per 5 days every three weeks (the following 4 patients).

[4] = 1 μMol, added on day 2 and day 6, read on day 10
[5] = 2 μMol, added on day 2 and day 6, read on day 10
[6] = 5 μMol, added on day 2 and day 6, read on day 10
[7] = 10 μMol, added on day 2 and day 6, read on day 10
[8] = 20 μMol, added on day 2 and day 6, read on day 10
[9] = patient 1, bladder carcinoma, lesion lung and bladder, total dose 2.5 gr, i.v. 1.5 mg/kg daily per 5 days every three weeks
[10] = patient 2, bladder carcinoma, lesion lung and bladder, total dose 3.2 gr, i.v. 1.5 mg/kg daily per 5 days every three weeks
[11] = patient 3, bladder carcinoma, lesion lung and bladder, total dose 2.8 gr, i.v. 1.5 mg/kg daily per 5 days every three weeks
[12] = patient 4, bladder carcinoma, lesion bladder, total dose 3.7 gr, i.v. 1.5 mg/kg daily per 5 days every three weeks
[13] = patient 5, bladder carcinoma, lesion lung and bladder, total dose 4.9 gr, i.v. 1.5 mg/kg daily per 5 days every three weeks
[14] = patient 6, bladder carcinoma, lesion bladder, total dose 12 gr, i.v. 3 mg/kg daily per 5 days every three weeks
[15] = patient 7, bladder carcinoma, lesion lung and bladder, total dose 9.6 gr, i.v. 3 mg/kg daily per 5 days every three weeks
[16] = patient 8, bladder carcinoma, lesion lung and bladder, total dose 11.8 gr, i.v. 3 mg/kg daily per 5 days every three weeks
[17] = patient 9, bladder carcinoma, lesion lung and bladder, total dose 10.8 gr, i.v. 3 mg/kg daily per 5 days every three weeks

With `NC1=NCCS1` [2-Amino-2-thiazoline] the “biochemical affinity with tumor membrane receptors” value (bladder tumor receptor) was “very high”, the “affinity for other tumor receptors” value [1] was “shown affinity” and the “Colonies without contact inhibition” value (Hela cells; [4]) was 42%. The “Total number of colonies” value (Hela cells; [4]) was 100%, the “Colonies with contact inhibition” value (Hela cells; 1 μMol, added on day 2 and day 6, read on day 10, 500 colonies per flask) was 58% and the “Colonies with contact inhibition” value (Hela cells; [5]) was 59%. The “Colonies without contact inhibition” value (Hela cells; [5]) was 41%, the “Total number of colonies” value (Hela cells; [5]) was 100% and the “Colonies with contact inhibition” value (Hela cells; [6]) was 75%. For the same compound, the “Colonies without contact inhibition” value (Hela cells; [6]) was 25%, the “Total number of colonies” value (Hela cells; [6]) was 85% and the “Colonies with contact inhibition” value (Hela cells; [7]) was 86%. The “Colonies without contact inhibition” value (Hela cells; [7]) was 14%, the “Total number of colonies” value (Hela cells; [7]) was 75% and the “Colonies with contact inhibition” value (Hela cells; 20 μMol (maximum dosage), added on day 2 and day 6, read on day 10) was 100%. For the same compound, the “Colonies without contact inhibition” value (Hela cells; [8]) was 0%, the “Total number of colonies” value (Hela cells; [8]) was 45% and the clinical response [2] was “stabilization and minor remissions”. For the same compound, the “increasing the survival time of the mice” value (Lewis Lung carcinoma) was “completely inactive”, the Toxicity (Toxicity to humans) was “non-toxic” and the “increasing the survival time of the mice” value (Leukemia 1210) was “completely inactive”.
In the case of `Cl.NC1=NCCS1` [2-Amino-2-thiazoline·HCl, 2-amino-2-thiazoline hydrochloride], the Toxicity (Toxicity to humans) is reported as “non-toxic”, the Toxicity ([3]; all 9 patients, i.v. 1.5 or 3 mg/kg daily per 5 days every three weeks) is reported as “None of the patients showed any toxicity” and the “objective responses (mor than 50% reduction of tumor size)” value ([3]; number of responders out of the 9 cases, combined area of lung metastasis and size of the cystoscopic lesion) is reported as 4. The Response [3, 9] was “complete remission”, the Toxicity [3, 9] was “none” and the Response [3, 10] was “partial remission”. For the same compound, the Toxicity [3, 10] was “none”, the Response [3, 11] was “complete remission” and the Toxicity [3, 11] was “none”. For the same compound, the Response [3, 12] was “stabilization”, the Toxicity [3, 12] was “none” and the Response [3, 13] was “stabilization”. For the same compound, the Toxicity [3, 13] was “none”, the Response [3, 14] was “complete remission” and the Toxicity [3, 14] was “none”. For the same compound, the Response [3, 15] was “complete remission”, the Toxicity [3, 15] was “none” and the Response [3, 16] was “stabilization”. The Toxicity [3, 16] was “none”, the Response [3, 17] was “stabilization” and the Toxicity [3, 17] was “none”.
